Data published in the NIST ThermoML archive (doi:10.1021/je400510j).
Where “and” joins values, the source holds several entries; their conditions need not be identical. Identical values can stand only once.

Details: Liquid; for mass density: 101.33 kPa, Vibrating tube method; for vapor or sublimation pressure: Closed cell (Static) method

CO[PH](=O)[O-].Cn1cc[n+](C)c1 [1,3-dimethylimidazolium methyl phosphonate]
Details | mass density [kg/m3]
298.15 K | 1230.6
299.45 K | 1229.8
300.75 K | 1229.3
302.15 K | 1228.6
303.45 K | 1227.9
304.75 K | 1227.3
305.85 K | 1226.6
307.15 K | 1225.8
308.65 K | 1224.9
310.35 K | 1223.9
311.75 K | 1223.1
313.05 K | 1222.4
314.45 K | 1221.5
315.85 K | 1220.7
317.25 K | 1219.9
318.75 K | 1219.2

c1ccncc1 [pyridine]
Details | vapor or sublimation pressure
288.15 K | 1.65 kPa and 1.72 kPa
293.15 K | 2.2 kPa and 2.25 kPa
298.15 K | 2.83 kPa and 2.85 kPa
303.15 K | 3.45 kPa

c1ccsc1 [thiophene]
Details | vapor or sublimation pressure
288.15 K | 6.78 kPa and 6.75 kPa
293.15 K | 8.7 kPa and 8.74 kPa
298.15 K | 10.37 kPa and 10.58 kPa
303.15 K | 12.98 kPa

Cc1ccccc1 [toluene]
Details | vapor or sublimation pressure
288.15 K | 2.42 kPa and 2.35 kPa
293.15 K | 3.18 kPa and 3.05 kPa
298.15 K | 3.84 kPa
303.15 K | 4.73 kPa

O [water]
Details | vapor or sublimation pressure [kPa]
283.15 K | 1.27
288.15 K | 1.73
293.15 K | 2.33
298.15 K | 3.2
